For 37 compounds, IC50 results are on record in US9453014B2, “Cyclic amide derivatives as inhibitors of 11-β-hydroxysteroid dehydrogenase and uses thereof” (CONNEXIOS LIFE SCIENCES PVT. LTD., priority 2011, dated 2016).

A value given as a limit tells only on which side of the number the result lay.

The target of this test is T1, human full length HSD11 β 1 (Homo sapiens, UniProt P28845).
T1 construct: transient expression of human full length HSD11 β 1 expression vector; host or cells: CHO cells (transient transfection)
T1 sequence (P28845 whole entry): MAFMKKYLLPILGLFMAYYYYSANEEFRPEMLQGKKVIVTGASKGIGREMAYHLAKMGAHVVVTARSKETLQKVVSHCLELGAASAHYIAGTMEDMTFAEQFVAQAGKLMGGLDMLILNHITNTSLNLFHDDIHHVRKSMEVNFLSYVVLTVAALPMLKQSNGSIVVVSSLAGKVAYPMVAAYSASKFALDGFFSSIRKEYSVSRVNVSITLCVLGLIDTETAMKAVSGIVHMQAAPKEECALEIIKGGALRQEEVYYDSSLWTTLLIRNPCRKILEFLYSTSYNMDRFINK
The test can be described thus: In Vitro HSD11β1 Inhibition Assay. The test is classed as cell-based. Particulars: CHO cells transiently expressing human HSD11β1; 200 nM cortisone+500 uM NADPH overnight; cortisone to cortisol by LC/MS-MS; read-out: 11βHSD1 (IC50). Put shortly:
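CHO cells transiently transfected with human full-length HSD11β1 were re-seeded after 24 h and, 24 h later, incubated overnight with 200 nM cortisone plus 500 uM NADPH and inhibitor. Cortisone-to-cortisol conversion was measured by LC/MS-MS. IC50 from an 8-point log concentration–inhibition curve.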
For orientation: IC50 means the midpoint of a concentration-inhibition curve. For `CC(CC(=O)N1CCC2CCCCC21)c1nc2ccccc2s1` (stereo not shown) [Example 142, 3-(1,3-benzothiazol-2-yl)-1-(octahydro-1H-indol-1-yl)butan-1-one], the IC50 is less than 100 nM.

With `CC(C)C(CC(=O)N1CCC(C(=O)O)C2CCCCC21)c1c[nH]c2ncccc12` (stereo not shown) [Example 163, 1-[4-methyl-3-(1H-pyrrolo[2,3-b]pyridin-3-yl)pentanoyl]decahydro quinoline-4-carboxylic acid], the IC50 is more than 250 nM.

In the case of `CCn1cc(CCC(=O)N2CCCC3CCCCC32)c2c(C)cccc21` (stereo not shown) [Compound 33, 3-(1-ethyl-4-methyl-1H-indol-3-yl)-1-(octahydroquinolin-1(2H)-yl)propan-1-one], the IC50 was more than 250 nM.

For `CC12CCCCC1N(C(=O)CCc1c[nH]c3ccccc13)CCC2` (single isomer, unassigned) [Compound 56, 3-(1H-indol-3-yl)-1-(4a-methyloctahydroquinolin-1(2H)-yl)propan-1-one], the IC50 lay in the range of 150 to 200 nM.

On to `O=C(O)C1CCC2C(CCCN2C(=O)CC(c2ccccc2)c2c[nH]c3cccc(F)c23)C1` (stereo not shown) [Example 186, 1-[3-(4-fluoro-1H-indol-3-yl)-3-phenylpropanoyl]decahydroquinoline-6-carboxylic acid], for which the IC50 was less than 100 nM.

Turning to `CC(CC(=O)N1CCC(=O)C2CCCCC21)c1c[nH]c2cccc(Cl)c12` (stereo not shown) [Compound 235, 1-[3-(4-chloro-1H-indol-3-yl)butanoyl]octahydroquinolin-4(1H)-one], the IC50 was less than 100 nM.

Regarding `CC(C)(C)NC(=O)C1CC2CCCCC2CN1C(=O)CCc1c[nH]c2ccccc12` (stereo not shown) [Compound 23, N-tert-butyl-2-[3-(1H-indol-3-yl)propanoyl]decahydroisoquinoline-3-carboxamide], the IC50 is more than 250 nM.

For the compound `CC(CC(=O)N1CCCC2CCCCC21)c1c[nH]c2cccc(F)c12` (single isomer, unassigned) [Example 123, 3-(4-fluoro-1H-indol-3-yl)-1-(octahydroquinolin-1(2H)-yl)butan-1-one], the IC50 is less than 100 nM.

In the case of `O=C(O)C1CCCC2C1CCCN2C(=O)CC(c1cccs1)c1c[nH]c2cccc(Cl)c12` (single isomer, unassigned) [Compound 219, 1-[3-(4-chloro-1H-indol-3-yl)-3-(thiophen-2-yl)propanoyl]decahydroquinoline-5-carboxylic acid], the IC50 is more than 250 nM.

Take `CC(CC(=O)N1CCCC2C(C(=O)O)CCCC21)c1c[nH]c2cccc(-c3ccccc3F)c12` (stereo not shown) [Compound 257, 1-{3-[4-(2-fluorophenyl)-1H-indol-3-yl]butanoyl}decahydroquinoline-5-carboxylic acid]: the IC50 is 100 to 150 nM.

As to `O=C(O)C1CCN(C(=O)CC(c2ccccc2)c2c[nH]c3cc(F)ccc23)C2CCCCC12` (single isomer, unassigned) [Example 159, 1-[3-(6-fluoro-1H-indol-3-yl)-3-phenylpropanoyl]decahydroquinoline-4-carboxylic acid], the IC50 is less than 100 nM.

For the compound `O=C(CCc1nc2ccccc2s1)N1CCOC2CCCCC21` (stereo not shown) [Example 80, 3-(1,3-benzothiazol-2-yl)-1-(octahydro-4H-1,4-benzoxazin-4-yl)propan-1-one], the IC50 was more than 250 nM.

In the case of `CC(CC(=O)N1CCCC2C(C(=O)O)CCCC21)c1c[nH]c2cccc(-c3ccco3)c12` (stereo not shown) [Compound 221, 1-{3-[4-(furan-2-yl)-1H-indol-3-yl]butanoyl}decahydroquinoline-5-carboxylic acid], the IC50 was less than 100 nM.

Regarding `O=C(CCc1c[nH]c2ccccc12)N1CCCCC2CCCCC21` (stereo not shown) [Compound 54, 1-(decahydro-1H-1-benzazepin-1-yl)-3-(1H-indol-3-yl)propan-1-one], the IC50 was more than 250 nM.

As for `Cc1cccc2[nH]cc(CCC(=O)N3CCOC4CCCCC43)c12` (stereo not shown) [Compound 64, 3-(4-methyl-1H-indol-3-yl)-1-(octahydro-4H-1,4-benzoxazin-4-yl)propan-1-one], the IC50 fell in the range of 150 to 200 nM.

For the compound `O=C(O)C1CCN(C(=O)CC(c2ccccc2)n2nnc3ccccc32)C2CCCCC12` (single isomer, unassigned) [Example 181, 1-[3-(1H-benzotriazol-1-yl)-3-phenylpropanoyl]decahydroquinoline-4-carboxylic acid], the IC50 was more than 250 nM.

Consider `O=C(O)C1CCC2CCCCC2N1C(=O)CC(c1ccccc1)c1c[nH]c2cc(F)ccc12` (stereo not shown) [Example 174, 1-[3-(6-fluoro-1H-indol-3-yl)-3-phenylpropanoyl]decahydroquinoline-2-carboxylic acid], for which the IC50 was more than 250 nM.

For the compound `CC(C)C(CC(=O)N1CCOC2CCCCC21)c1cn(C)c2ccccc12` (stereo not shown) [Example 134, 4-methyl-3-(1-methyl-1H-indol-3-yl)-1-(octahydro-4H-1,4-benzoxazin-4-yl)pentan-1-one], the IC50 was more than 250 nM.

For the compound `Cc1[nH]c2ccc(F)cc2c1CCC(=O)N1CCCC2CCCCC21` (stereo not shown) [Compound 16, 3-(5-fluoro-2-methyl-1H-indol-3-yl)-1-(octahydroquinolin-1(2H)-yl)propan-1-one], the IC50 was in the range of 150 to 200 nM.

Consider `CC(CC(=O)N1CCCC2C(C(=O)O)CCCC21)c1c[nH]c2cccc(Cl)c12` (stereo not shown) [Compound 193, 1-[3-(4-chloro-1H-indol-3-yl)butanoyl]decahydroquinoline-5-carboxylic acid], for which the IC50 is 100 to 150 nM.

As for `CC(CC(=O)N1CCCC2(CO)CCCCC12)c1c[nH]c2ccccc12` (stereo not shown) [Example 131, 1-[4a-(hydroxymethyl)octahydroquinolin-1(2H)-yl]-3-(1H-indol-3-yl)butan-1-one], the IC50 was more than 250 nM.

In the case of `O=C(O)C1CCN(C(=O)CC(c2ccc(F)cc2)c2c[nH]c3cccc(F)c23)C2CCCCC12` (single isomer, unassigned) [Compound 226, 1-[3-(4-fluoro-1H-indol-3-yl)-3-(4-fluorophenyl)propanoyl]decahydroquinoline-4-carboxylic acid], the IC50 was more than 250 nM.

On to `O=C(CCc1n[nH]c2ccccc12)N1CCCC2CCCCC21` (stereo not shown) [Example 88, 3-(1H-indazol-3-yl)-1-(octahydroquinolin-1(2H)-yl)propan-1-one], for which the IC50 is more than 250 nM.

As for `O=C(O)C1CCN(C(=O)CC(c2ccc(F)cc2)c2c[nH]c3cccc(F)c23)C2CCCCC12` (single isomer, unassigned) [Compound 225, 1-[3-(4-fluoro-1H-indol-3-yl)-3-(4-fluorophenyl)propanoyl]decahydroquinoline-4-carboxylic acid], the IC50 is less than 100 nM.

As for `CC(CC(=O)N1CCCC2CCCCC21)c1c[nH]c2cccc(-c3ccc(C(=O)O)o3)c12` (stereo not shown) [Compound 246, 5-{3-[4-(octahydroquinolin-1(2H)-yl)-4-oxobutan-2-yl]-1H-indol-4-yl}furan-2-carboxylic acid], the IC50 is more than 250 nM.

With `CC(CC(=O)N1CCC[C@H]2CCCC[C@@H]21)c1c[nH]c2cccc(Cl)c12` (stereo partly drawn) [Example 126, 3-(4-chloro-1H-indol-3-yl)-1-[trans-(4a,8a)-octahydroquinolin-1(2H)-yl]butan-1-one], the IC50 was more than 250 nM.

In the case of `Cc1cccc2[nH]cc(CCC(=O)N3CC(C)(C)OC4CCCCC43)c12` (stereo not shown) [Compound 68, 1-(2,2-dimethyloctahydro-4H-1,4-benzoxazin-4-yl)-3-(4-methyl-1H-indol-3-yl)propan-1-one], the IC50 was more than 250 nM.

Take `CC1CCN(C(=O)CCc2c[nH]c3ccccc23)C2CCCCC12` (stereo not shown) [Compound 12, 3-(1H-indol-3-yl)-1-(4-methyloctahydroquinolin-1(2H)-yl)propan-1-one]: the IC50 was more than 250 nM.

`O=C(CCc1c[nH]c2ccccc12)N1CCCC2CCCCC21` (single isomer, unassigned) [Compound 52, 3-(1H-indol-3-yl)-1-(octahydroquinolin-1(2H)-yl)propan-1-one]: the IC50 was more than 250 nM.

For the compound `CC(CC(=O)N1CCCC2C(C(=O)O)CCCC21)c1c(C#N)n(C)c2cccc(C3CC3)c12` (stereo not shown) [Compound 258, 1-[3-(2-cyano-4-cyclopropyl-1-methyl-1H-indol-3-yl)butanoyl]decahydroquinoline-5-carboxylic acid], the IC50 was more than 250 nM.

Consider `O=C(CCc1c[nH]c2ccccc12)N1CCC2CCCCC2C1` (stereo not shown) [Compound 21, 3-(1H-indol-3-yl)-1-(octahydroisoquinolin-2(1H)-yl)propan-1-one], for which the IC50 is more than 250 nM.

For the compound `O=C(O)C1CCCC2C1CCCN2C(=O)CC(c1cccs1)c1c[nH]c2cccc(Cl)c12` (single isomer, unassigned) [Compound 218, 1-[3-(4-chloro-1H-indol-3-yl)-3-(thiophen-2-yl)propanoyl]decahydroquinoline-5-carboxylic acid], the IC50 is less than 100 nM.

For `CC1CC2CCCCC2N1C(=O)CCc1nc2ccccc2s1` (stereo not shown) [Example 83, 3-(1,3-benzothiazol-2-yl)-1-(2-methyloctahydro-1H-indol-1-yl)propan-1-one], the IC50 is more than 250 nM.

`Cn1nc(CCC(=O)N2CCCC3C(C(=O)O)CCCC32)c2c(C3CC3)cccc21` (stereo not shown) [Compound 268, 1-(3-(4-cyclopropyl-1-methyl-1H-indazol-3-yl)propanoyl) decahydroquinoline-5-carboxylic acid]: the half-inhibitory concentration (IC50) was more than 250 nM.

For `O=C(CCc1cn(S(=O)(=O)c2ccccc2)c2ccccc12)N1CCCC2CCCCC21` (stereo not shown) [Compound 51, 1-(octahydroquinolin-1(2H)-yl)-3-[1-(phenylsulfonyl)-1H-indol-3-yl]propan-1-one], the IC50 is more than 250 nM.

As to `Cc1ccc(-c2cccc3[nH]cc(C(C)CC(=O)N4CCCC5C(C(=O)O)CCCC54)c23)o1` (stereo not shown) [Compound 236, 1-{3-[4-(5-methylfuran-2-yl)-1H-indol-3-yl]butanoyl}decahydroquinoline-5-carboxylic acid], the IC50 lay in the range of 100 to 150 nM.

Consider `O=C(O)C1CCN(C(=O)CC(c2ccccc2)c2c[nH]c3cc(F)ccc23)C2CCCCC12` (single isomer, unassigned) [Example 160, 1-[3-(6-fluoro-1H-indol-3-yl)-3-phenylpropanoyl]decahydroquinoline-4-carboxylic acid], for which the IC50 is more than 250 nM.
